Values quoted from earlier work, collected in publication PMC2737817 (Bioorganic & medicinal chemistry letters, 2009).

Key:
[1] = system: GPI/LMMP; conditions: read-out: Functional Bioactivity GPI (IC50); ± S.E.M.; ref [42]; SEM
[2] = system: MVD; conditions: read-out: Functional Bioactivity MVD (IC50); ± S.E.M.; ref [42]; SEM

| Substance | IC50 [1] [nM] | IC50 [2] [nM] |
| --- | --- | --- |
| Tyr-Pro-Phe-Phe-NH2 [EM-2] | 15 ± 2 | – |
| Tyr-Pro-Trp-Phe-NH2 [EM-1] | 28 ± 3 | 1710 ± 110 |
